The values that follow come from ChEMBL document CHEMBL1125995, “Synthesis of a difluoromethylenephosphonate analogue of AZT 5'-triphosphate and its inhibition of HIV-1 reverse transcriptase” (Bioorg Med Chem Lett, 1991).

For assay [1], the target named is T1, Human immunodeficiency virus type 1 reverse transcriptase (Human immunodeficiency virus 1, UniProt Q72547). The assay can be described thus: Compound concentration that causes 50 % inhibition of HIV-1 peptide-derived reverse transcriptase (RT).
In assay [2] the target is T1, Human immunodeficiency virus type 1 reverse transcriptase. The assay can be described thus: Inhibitory constant was determined in an HIV-1 reverse transcriptase assay in which the [3H]dTTP concentration was varied (i.e. 40, 20, 10, 6, and 4 uM.
Assay [3] shares this target. The assay can be described thus: Compound concentration that causes 50 % inhibition of HIV-1 peptide-derived reverse transcriptase (RT) obtained from HIV-1-infected H9 cell cultures.

Compound `Cc1cn(C2CC(N=[N+]=[N-])C(COP(=O)(O)OP(=O)(O)CP(=O)(O)O)O2)c(=O)[nH]c1=O` (centres undefined) displayed an IC50 in assay [1] of 6950 nM. That is a single-digit micromolar value.

`Cc1cn(C2CC(N=[N+]=[N-])C(COP(=O)(O)OP(=O)(O)C(F)(F)P(=O)(O)O)O2)c(=O)[nH]c1=O` (centres undefined) displayed a Ki in assay [2] of 2230 nM. This compound also registered an IC50 in assay [1] of 620 nM.

`Cc1cn([C@H]2C[C@H](N=[N+]=[N-])[C@@H](CO[P@](=O)(O)O[P@](=O)(O)OP(=O)(O)O)O2)c(=O)[nH]c1=O` [ZIDOVUDINE TRIPHOSPHATE] displayed an IC50 in assay [3] of 22 nM. This counts as double-digit nanomolar.

What is called IC50 is the concentration that gives 50% inhibition. The Ki is a dissociation constant, usually derived from enzyme kinetics or from competition with a known ligand. A low value points to a stronger hold on the target.
